Assay [1] has as its system hair cells in hESC-derived inner ear organoids. The assay can be described thus: PRESTIN immunohistochemistry of hair cells in hESC-derived inner ear organoids. The settings on record: for PRESTIN expression / number of Prestin positive HCs: 250 ng/ml thyroxine, about day 50 to about day 100. Type of assay: cell-based, human. As for the experimental part: PAX2-2A-nGFP/POU4F3-2A-ntdTomat hESCs (passages 22-50) were maintained and passaged in Essential 8 Flex Medium (Thermo Fisher, A2858501) supplemented with 100 μg/ml Normocin (E8fn) on recombinant human Vitronectin-N(Thermo Fisher, A14700)-coated 6-well plates. Human inner ear organoids were derived from hESCs based on the inventors' previous protocol 8.10 with major modifications. Briefly, hESCs were dissociated with StemPro Accutase (Thermo Fisher, A1110501) and distributed at 3500 cells per well onto low-adhesion 96-well U-bottom plates in 100 μL E8fn containing 20 μM Y-27632 (Stemgent, 04-0012-02) and forcibly aggregated at 120 g for 5 minutes. 100 μL of E8fn was added to each well after >4 h of incubation. Induction of non-neural epithelium occurred following 48 h of aggregation, marking differentiation day 0, as follows: aggregates were washed extensively in DMEM:F12 with HEPES buffer (DFH) (Thermo Fisher, 11320033) and transferred to new 96-well U-bottom plates in 100 μL of E6 medium (Thermo Fisher, A1516401) with Normocin (E6n) containing 4 ng mL^−1 FGF-2 (StemCell Technologies, 780003), 10 μM SB-431542 (Stemgent, 04-0010-05), and 2% growth factor reduced (GFR) Matrigel (Corning, 354230). On day 3 of differentiation, 25 μL of E6n containing 50 ng/ml FGF-2 and 200 nM LDN-193189 (Stemgent, 04-0074-02) was added to each well. Culture medium was changed on days 7 and 9 with Eon containing 3 μM CHIR 99021 (Reprocell, 04-0004-10), 200 nM LDN, and 50 ng/mL FGF-2. On day 11, aggregates were washed and transferred to a Nunc Delta surface 6-well culture dish in Organoid Maturation Medium (OMM) containing 1% GFR Matrigel and 3 μM CHIR99021. OMM consists of a 50:50 mixture of Advanced DMEM:F12 (Thermo Fisher, 12634028) and Neurobasal Medium (Thermo Fisher, 21103049) supplemented with 0.5×N2 Supplement (Thermo Fisher, 17502048), 0.5×B27 minus Vitamin A (Thermo Fisher, 12587010), 1× GlutaMAX (Thermo Fisher, 35050061), 0.1 mM β-Mercaptoethanol (Thermo Fisher, 21985023), and Normocin. Control cultures were maintained in OMM+3 μM CHIR99021 until day 18 with media changes on days 13 and 15, then OMM for the remainder of the culture. Treatment cultures were supplemented with 1 μM Purmorphamine (Stemgent, 04-0009) from days 13-22, and IWP-2 (Tocris, 3533) from days 18-22, with media changes on days 15,18, and 20, then maintained in OMM for the remainder of the culture.
Aggregates were fixed with 4% paraformaldehyde for 30 min at room temperature or at 4° C. overnight. […]
Treated and control samples were processed for immunostaining simultaneously using identical reagents and protocols for each comparison. […] Raw images were analysed using Nikon GI3 suite or exported in TIFF format and analysed using ImageJ. […]

Assay [2] has as its system PAX2-2A-nGFP/POU4F3-2A-ntdTomato hESC-derived aggregates. The assay can be described thus: derivation of POU4F3+ hair cells (POU4F3-ntdTomato reporter). It is filed as cell-based, human. How it is done: To build a PAX2-2A-nGFP/POU4F3-2A-ntdTomato multiplex reporter cell line, the POU4F3-2A-ntdTomato knockin CRISPR was performed on the PAX2-2A-nGFP genetic background. The POU4F3-2A-tdTomato-nls-bGH polyA-frt-PGK-Puro-pA-frt donor plasmid was constructed by connecting the following DNA fragments via Gibson assembly: Two 1 kb homology arms flanking the POU4F3 stop codon amplified from WA25 genomic DNA, 2A-tdTomato gBlock DNA, nls-stop-bGH pA gBlock DNA, frt-PGK-Puro-frt gBlock DNA (IDT), and a linearized pUC19 backbone. The completed donor plasmid was transfected into the PAX2-2A-nGFP parental hES cell line along with a ribonucleoprotein complex composed of a synthetic sgRNA (5′-[…]-3′ (SEQ ID NO: 30)) (Synthego) targeting the POU4F3 stop codon locus, and a high fidelity Cas9 protein (HiFi Cas9 v3, IDT). The transfection was also performed with a 4D Nucleofector (Lonza) using the P3 Primary Cell 4D-Nucleofector X kit and Program CB-150. After nucleofection, cells were plated in E8fn medium containing 1× RevitaCell (Thermo Fisher) and 1 μM of Scr7 (Xcessbio). 0.5 μg/mL puromycin selection was performed for 9 days starting from 48 h post-nucleofection. The frt-flanked PGK-Puro cassette was removed via FLPo transfection (Addgene #13793). Clonal cell line isolation and genotyping procedures were the same as PAX2-2A-nGFP CRISPR. […]

In the case of `N[C@@H](Cc1cc(I)c(Oc2cc(I)c(O)c(I)c2)c(I)c1)C(=O)O` [T4, thyroxine], the “PRESTIN expression / number of Prestin positive HCs” value in assay [1] (listed as Thyroxine) is “increases”; in assay [1] (listed as thyroxine), “increased PRESTIN expression”. Also, the “SOX2 expression in HCs” value in assay [1] (T4 treated cochlear organoid cultures) was “downregulated”. Further, the “PRESTIN+HCs” value in assay [1] (cochlear organoid cultures, 250 ng/ml T4 from culture day 50 until D100, read at D100) was roughly 80%.
As for `Cl.Cl.O=S(=O)(NCCNCC=Cc1ccc(Br)cc1)c1cccc2cnccc12` [H89], the “efficacy in deriving POU4F3+ hair cells” value in assay [2] (10 μM H89 alone or combined with PUR / PUR+IWP2, D102) was “none of these treatments were efficacious”.

B1: BMP-4: recombinant bone morphogenic protein applied on day 0 (protein, UniProt P12644 293-408, looked up)
Bone morphogenetic protein 4: SPKHHSQRARKKNKNCRRHSLYVDFSDVGWNDWIVAPPGYQAFYCHGDCPFPLADHLNSTNHAIVQTLVNSVNSSIPKACCVPTELSAISMLYLDEYDKVVLKNYQEMVVEGCGCR
B1: the “proportion of POU4F3 cells” value in assay [2] (BMP-4 applied on day 0, read at D55) is reported as “increases”.
